{
  "source": "PubChem BioAssay (NCI)",
  "note": "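All cell lines were grown in 96-well plates and treated with compound for 48 hours. GI50 = concentration required for 50% inhibition of growth. TGI marks complete inhibition of growth.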",
  "data": [
    {"tested_on": "SK-MEL-2 melanoma", "assay": "NCI anticancer screen, dose series, 48 h", "units": {"GI50": "µM", "TGI": "µM"}, "values": [
      {"compound": "C#C[C@]1(O)CC[C@H]2[C@@H]3CC=C4c5nc(N)sc5CC[C@]4(C)[C@H]3CC[C@@]21C", "GI50": 2.72, "TGI": 7.57},
      {"compound": "CCOC(=O)c1c(CN2CCN(C)CC2)nc2ccc(Cl)cc2c1-c1ccccc1", "GI50": 12.9, "TGI": 26.2},
      {"compound": "O=CN1N=C(c2cccc(Nc3ccnc4cc(Cl)ccc34)c2)CC1c1ccc(Cl)cc1", "note": "(centres undefined)", "GI50": 2.05, "TGI": "> 100"},
      {"compound": "OCCN(CO)CO", "TGI": "> 100"},
      {"compound": "CN1CC[C@H](c2c(O)cc(O)c3c(=O)cc(-c4ccccc4Cl)oc23)[C@H](O)C1", "GI50": 0.0668, "TGI": 0.26},
      {"compound": "COc1cc(-c2nn(-c3cccc(NC(=O)CCNc4ccc(N5CCOCC5)cc4)c3)cc2-c2ccncc2)ccc1Cl", "GI50": 2.07, "TGI": 5.64},
      {"compound": "CC(=O)Oc1cc2cnc3c4cc(OC(C)=O)c(OC(C)=O)cc4ccc3c2cc1OC(C)=O", "GI50": 4.5, "TGI": 79.9},
      {"compound": "CCCCCC[C@H]1C(=O)O[C@H](C)[C@H](NC(=O)c2cccc(NC=O)c2OC)C(=O)O[C@@H](C)[C@@H]1OC(=O)CCC", "note": "(tested in a mixture with another compound)", "GI50": 18.1, "TGI": 60.5},
      {"compound": "CC1OC(OC2C(O)C(O)C(O)C(O)C2O)C(N)CC1N=C(N)C(=O)O", "note": "(centres undefined)", "TGI": "> 100"},
      {"compound": "C=CC(=O)Nc1cc2c(Nc3ccc(F)c(Cl)c3)ncnc2cc1C#CC(C)(C)N1CCN(C)CC1", "GI50": 2.98, "TGI": 5.54},
      {"compound": "CSC1=Nc2c(c(C)c(-c3ccccc3)n2COC(CO)CO)C2=NC(=O)CC(C)N12", "note": "(centres undefined)", "GI50": "> 100", "TGI": "> 100"},
      {"compound": "C=C1C[C@@H]2O[C@H]3[C@H]4[C@@H](CC[C@@](C)(OC(=O)CCC)[C@H]42)[C@@H](C)C(=O)O[C@@]3(C)CC[C@H]1OO", "GI50": 52.2, "TGI": "> 100"}
    ]},
    {"tested_on": "BT-549 breast", "assay": "NCI anticancer screen, dose series, 48 h", "units": {"GI50": "µM", "TGI": "µM"}, "values": [
      {"compound": "C#C[C@]1(O)CC[C@H]2[C@@H]3CC=C4c5nc(N)sc5CC[C@]4(C)[C@H]3CC[C@@]21C", "GI50": 1.97, "TGI": 6.26},
      {"compound": "CCOC(=O)c1c(CN2CCN(C)CC2)nc2ccc(Cl)cc2c1-c1ccccc1", "GI50": 7.1, "TGI": 20.8},
      {"compound": "O=CN1N=C(c2cccc(Nc3ccnc4cc(Cl)ccc34)c2)CC1c1ccc(Cl)cc1", "note": "(centres undefined)", "GI50": 1.36, "TGI": 16.2},
      {"compound": "OCCN(CO)CO", "TGI": "> 100"},
      {"compound": "CN1CC[C@H](c2c(O)cc(O)c3c(=O)cc(-c4ccccc4Cl)oc23)[C@H](O)C1", "GI50": 0.0807, "TGI": 0.599},
      {"compound": "COc1cc(-c2nn(-c3cccc(NC(=O)CCNc4ccc(N5CCOCC5)cc4)c3)cc2-c2ccncc2)ccc1Cl", "GI50": 3.41, "TGI": 31},
      {"compound": "CC(=O)Oc1cc2cnc3c4cc(OC(C)=O)c(OC(C)=O)cc4ccc3c2cc1OC(C)=O", "GI50": 1.35, "TGI": 8.4},
      {"compound": "CCCCCC[C@H]1C(=O)O[C@H](C)[C@H](NC(=O)c2cccc(NC=O)c2OC)C(=O)O[C@@H](C)[C@@H]1OC(=O)CCC", "note": "(tested in a mixture with another compound)", "GI50": 11.9, "TGI": 35.5},
      {"compound": "CC1OC(OC2C(O)C(O)C(O)C(O)C2O)C(N)CC1N=C(N)C(=O)O", "note": "(centres undefined)", "TGI": "> 100"},
      {"compound": "C=CC(=O)Nc1cc2c(Nc3ccc(F)c(Cl)c3)ncnc2cc1C#CC(C)(C)N1CCN(C)CC1", "GI50": 1.6, "TGI": 3.47},
      {"compound": "CSC1=Nc2c(c(C)c(-c3ccccc3)n2COC(CO)CO)C2=NC(=O)CC(C)N12", "note": "(centres undefined)", "GI50": "> 100", "TGI": "> 100"},
      {"compound": "C=C1C[C@@H]2O[C@H]3[C@H]4[C@@H](CC[C@@](C)(OC(=O)CCC)[C@H]42)[C@@H](C)C(=O)O[C@@]3(C)CC[C@H]1OO", "GI50": 36, "TGI": "> 100"}
    ]}
  ]
}
